Reference: patent US11214594B2, “Antimicrobial peptide having synergistic antibacterial effect with antibiotics on multidrug resistant bacteria, and use thereof” (priority 2016, dated 2022)
Where a SMILES comes first, the peptide text is derived from it. [ ]: non-standard residue; d: D form.

Key:
P. aeruginosa = experiment: microbe, parasite or virus in culture; assay type: cell-based, Pseudomonas aeruginosa
Summary of the method: (§1)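 Broth microdilution in MH medium: bacterial strains diluted to 2×10^6 CFU were mixed with equal volumes of peptide serially diluted twofold in MH medium.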

S. epidermidis = experiment: microbe, parasite or virus in culture; assay type: cell-based, Staphylococcus epidermidis
Summary of the method: as §1

S. typhimurium = experiment: microbe, parasite or virus in culture; assay type: cell-based, Salmonella typhimurium
Summary of the method: as §1

MDRPA 2002 = assay type: cell-based, Pseudomonas aeruginosa
Summary of the method: as §1

MDRPA 2003 = assay type: cell-based, Pseudomonas aeruginosa
Summary of the method: as §1

MDRAB 12035 [1] = experiment: MIC of antibiotic during combined treatment with antimicrobial peptide; assay type: cell-based, Acinetobacter baumannii
Summary of the method: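 Antibiotic MIC came from antibiotic dilutions added to bacteria (2×10^6 CFU/ml, MH medium) already combined with peptide serially diluted 2:1 from its own MIC. Swapping the roles of the two agents gave the peptide MIC.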

MDRAB 12035 [2] = experiment: microbe, parasite or virus in culture; assay type: cell-based, Acinetobacter baumannii
Summary of the method: as §1

A. baumannii = experiment: microbe, parasite or virus in culture; assay type: cell-based, Acinetobacter baumannii; details: for Antibacterial activity relative to PapMA-1: A. baumannii and S. typhimurium
Summary of the method: as §1

MRSA 3114 = assay type: cell-based, Staphylococcus aureus; details: 3114
Summary of the method: as §1

MRSA 3126 = assay type: cell-based, Staphylococcus aureus; details: 3126
Summary of the method: as §1

[3] = test system: multi-drug resistant bacteria; experiment: MIC, summary statements for multi-drug resistant bacteria; assay type: cell-based
Summary of the method: as §1

MDRST 8009 = assay type: cell-based, Salmonella typhimurium; details: agent alone
Summary of the method: as §1

MDREC 1238 = assay type: cell-based, Escherichia coli
Summary of the method: as §1

[4] = peptide treatment concentration 1 μg/ml
[5] = peptide treatment concentration 2 μg/ml
[6] = peptide treatment concentration 4 μg/ml
[7] = peptide treatment concentration 6 μg/ml
[8] = peptide treatment concentration 8 μg/ml
[9] = peptide treatment concentration 16 μg/ml
[10] = peptide treatment concentration 32 μg/ml
[11] = peptide treatment concentration 64 μg/ml

CC[C@H](C)[C@H](NC(=O)[C@H](CCCCN)NC(=O)[C@H](Cc1c[nH]c2ccccc12)NC(=O)[C@@H](N)CCCNC(=N)N)C(=O)N[C@@H](Cc1ccccc1)C(=O)N[C@@H](CCCCN)C(=O)N[C@@H](CCCCN)C(=O)N[C@H](C(=O)N[C@H](CCCCN)C(=O)N[C@@H](CCCCN)C(=O)N[C@@H](CC(C)C)C(=O)N[C@@H](CC(C)C)C(=O)N[C@@H](Cc1c[nH]cn1)C(=O)N[C@@H](CCCCN)C(=O)N[C@@H](Cc1ccccc1)C(=O)N[C@@H](CCCCN)C(=O)N[C@@H](CCCCN)C(=O)N[C@@H](Cc1ccccc1)C(N)=O)[C@@H](C)CC [PapMA-17, RWK IFK KIk KLL HKF KKF-NH2] (H-RWKIFKKI[dK]KLLHKFKKF-NH2; N-terminus assumed)
4 µg/mL: Erythromycin MIC during combined treatment with peptide (MDRAB 12035 [1]; [7]) | Linezolid MIC during combined treatment with peptide (MDRAB 12035 [1]; [9])
>128 µg/mL: Minimal inhibitory concentration MIC (S. epidermidis) | Linezolid MIC during combined treatment with peptide (MDRAB 12035 [1]; [4]) | Vancomycin MIC during combined treatment with peptide (MDRAB 12035 [1]; [4]) | Vancomycin MIC during combined treatment with peptide (MDRAB 12035 [1]; [5]) | Minimal inhibitory concentration MIC (MRSA 3114) | Minimal inhibitory concentration MIC (MRSA 3126)
8 µg/mL: Erythromycin MIC during combined treatment with peptide (MDRAB 12035 [1]; [6]) | Vancomycin MIC during combined treatment with peptide (MDRAB 12035 [1]; [9])
0.5 µg/mL: Erythromycin MIC during combined treatment with peptide (MDRAB 12035 [1]; [8])
0 µg/mL: Erythromycin MIC during combined treatment with peptide (MDRAB 12035 [1]; [10]) | Linezolid MIC during combined treatment with peptide (MDRAB 12035 [1]; [10]) | Vancomycin MIC during combined treatment with peptide (MDRAB 12035 [1]; [10]) | Erythromycin MIC during combined treatment with peptide (MDRAB 12035 [1]; [11]) | Linezolid MIC during combined treatment with peptide (MDRAB 12035 [1]; [11]) | Vancomycin MIC during combined treatment with peptide (MDRAB 12035 [1]; [11])
16 µg/mL: Minimal inhibitory concentration MIC (P. aeruginosa) | Minimal inhibitory concentration MIC (MDRPA 2002) | Minimal inhibitory concentration MIC (MDRPA 2003) | Erythromycin MIC during combined treatment with peptide (MDRAB 12035 [1]; [5]) | Linezolid MIC during combined treatment with peptide (MDRAB 12035 [1]; [8]) | Vancomycin MIC during combined treatment with peptide (MDRAB 12035 [1]; [8])
64 µg/mL: Minimal inhibitory concentration MIC (MDRST 8009)
twice to four times higher: Antibacterial activity relative to PapMA-1 [3]
32 µg/mL: Minimal inhibitory concentration MIC (S. typhimurium) | Erythromycin MIC during combined treatment with peptide (MDRAB 12035 [1]; [4]) | Linezolid MIC during combined treatment with peptide (MDRAB 12035 [1]; [6]) | Linezolid MIC during combined treatment with peptide (MDRAB 12035 [1]; [7]) | Vancomycin MIC during combined treatment with peptide (MDRAB 12035 [1]; [7]) | Minimal inhibitory concentration MIC (MDRAB 12035 [2]) | Peptide MIC, peptide alone (MDRAB 12035 [2]) | Minimal inhibitory concentration MIC (A. baumannii) | Peptide MIC, peptide alone (A. baumannii) | Minimal inhibitory concentration MIC (MDREC 1238)
0.25 µg/mL: Erythromycin MIC during combined treatment with peptide (MDRAB 12035 [1]; [9])
at least twice as high: Antibacterial activity relative to PapMA-1 (A. baumannii)
128 µg/mL: Linezolid MIC during combined treatment with peptide (MDRAB 12035 [1]; [5]) | Vancomycin MIC during combined treatment with peptide (MDRAB 12035 [1]; [6])

CC[C@H](C)[C@H](NC(=O)[C@H](CCCCN)NC(=O)[C@H](Cc1c[nH]c2ccccc12)NC(=O)[C@@H](N)CCCNC(=N)N)C(=O)N[C@@H](Cc1ccccc1)C(=O)N[C@@H](CCCCN)C(=O)N[C@@H](CCCCN)C(=O)N[C@H](C(=O)N[C@H](CCCCN)C(=O)N[C@@H](CCCCN)C(=O)N[C@@H](CC(C)C)C(=O)N[C@@H](CC(C)C)C(=O)N[C@@H](Cc1c[nH]cn1)C(=O)N[C@@H](CCC(=O)O)C(=O)N[C@@H](Cc1ccccc1)C(=O)N[C@@H](CCCCN)C(=O)N[C@@H](CCCCN)C(=O)N[C@@H](Cc1ccccc1)C(N)=O)[C@@H](C)CC [PapMA-19, RWK IFK KIk KLL HEF KKF-NH2] (H-RWKIFKKI[dK]KLLHEFKKF-NH2; N-terminus assumed)
4 µg/mL: Linezolid MIC during combined treatment with peptide (MDRAB 12035 [1]; [9])
8 µg/mL: Erythromycin MIC during combined treatment with peptide (MDRAB 12035 [1]; [6]) | Linezolid MIC during combined treatment with peptide (MDRAB 12035 [1]; [8]) | Vancomycin MIC during combined treatment with peptide (MDRAB 12035 [1]; [9])
32 µg/mL: Minimal inhibitory concentration MIC (S. typhimurium) | Erythromycin MIC during combined treatment with peptide (MDRAB 12035 [1]; [4]) | Vancomycin MIC during combined treatment with peptide (MDRAB 12035 [1]; [7]) | Minimal inhibitory concentration MIC (MDRAB 12035 [2]) | Peptide MIC, peptide alone (MDRAB 12035 [2]) | Minimal inhibitory concentration MIC (MDREC 1238)
0.125 µg/mL: Erythromycin MIC during combined treatment with peptide (MDRAB 12035 [1]; [9])
at least twice as high: Antibacterial activity relative to PapMA-1 (A. baumannii)
twice to four times higher: Antibacterial activity relative to PapMA-1 [3]
0 µg/mL: Erythromycin MIC during combined treatment with peptide (MDRAB 12035 [1]; [10]) | Linezolid MIC during combined treatment with peptide (MDRAB 12035 [1]; [10]) | Vancomycin MIC during combined treatment with peptide (MDRAB 12035 [1]; [10]) | Erythromycin MIC during combined treatment with peptide (MDRAB 12035 [1]; [11]) | Linezolid MIC during combined treatment with peptide (MDRAB 12035 [1]; [11]) | Vancomycin MIC during combined treatment with peptide (MDRAB 12035 [1]; [11])
>128 µg/mL: Minimal inhibitory concentration MIC (S. epidermidis) | Linezolid MIC during combined treatment with peptide (MDRAB 12035 [1]; [4]) | Vancomycin MIC during combined treatment with peptide (MDRAB 12035 [1]; [4]) | Minimal inhibitory concentration MIC (MRSA 3114) | Minimal inhibitory concentration MIC (MRSA 3126)
16 µg/mL: Erythromycin MIC during combined treatment with peptide (MDRAB 12035 [1]; [5]) | Linezolid MIC during combined treatment with peptide (MDRAB 12035 [1]; [7]) | Vancomycin MIC during combined treatment with peptide (MDRAB 12035 [1]; [8]) | Minimal inhibitory concentration MIC (A. baumannii) | Peptide MIC, peptide alone (A. baumannii)
0.5 µg/mL: Erythromycin MIC during combined treatment with peptide (MDRAB 12035 [1]; [8])
64 µg/mL: Minimal inhibitory concentration MIC (P. aeruginosa) | Minimal inhibitory concentration MIC (MDRPA 2002) | Minimal inhibitory concentration MIC (MDRPA 2003) | Linezolid MIC during combined treatment with peptide (MDRAB 12035 [1]; [6]) | Vancomycin MIC during combined treatment with peptide (MDRAB 12035 [1]; [6]) | Minimal inhibitory concentration MIC (MDRST 8009)
128 µg/mL: Linezolid MIC during combined treatment with peptide (MDRAB 12035 [1]; [5]) | Vancomycin MIC during combined treatment with peptide (MDRAB 12035 [1]; [5])
2 µg/mL: Erythromycin MIC during combined treatment with peptide (MDRAB 12035 [1]; [7])
